25 compounds from patent publication US8853424B2 (Japan Science and Technology Agency, priority 2008, dated 2014) can be followed below.

Each structure is given as a SMILES string.

The test system of one test is transglutaminase (TGase). Briefly: Measurement of TG (TGase inhibitory activity, monodansyl cadaverine / N,N-dimethylcasein fluorescence, FDSS 3000). The format is biochemical. In short, it runs like this:
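Compound (1 μL of 10 mM stock) added to 0.1 mL reaction: 100 mM HEPES-NaOH pH 7.5, 1 mM CaCl2, 20 μM monodansyl cadaverine, 0.05 mg/mL N,N-dimethylcasein, 5 μg/mL TGase. Rate of fluorescence change at 340 nm measured; DMSO control set to 100; TG50 is the concentration halving activity.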

Test [1] relates to Truncated N-terminal huntington 150 Q-EGFP-Neuron 2a cells. Put plainly: Measurement of x-Fold (polyglutamine aggregation inhibitory activity). It counts as cell-based. The method, then:
In the present invention, the polyglutamine aggregation inhibitory activity (x-Fold) can be measured, for example, by the method described in the Example.
The number of the aggregated cells, and the total number of cells were counted by Array Scan V T1 (manufactured by Cellomics, Pittuburg, USA), and the ratio of the aggregated cells to the total number of cells was determined (x-Fold). […]

[2] abbreviates: TGase activity with compound (10 mM, 1 μL in 0.1 ml enzyme reaction solution), DMSO control taken as 100.
Where [3] appears, read: TGase inhibitory activity value, Table 1.
[4] abbreviates: polyglutamine aggregation inhibitory activity, Table 1.
The mark [5] stands for this setting: ratio of aggregated cells to total number of cells, compound 20 μM, 20 hr, almost 1 without compound, smaller = stronger inhibition.
The mark [6] stands for this setting: TGase inhibitory activity measurement, unit not given.
Setting [7] is: polyglutamine aggregation, Truncated N-terminal huntington 150 Q-EGFP-Neuron 2a cells.

As for `Cc1ccc(B(O)c2ccc(-c3ccc(B(O)c4ccc(C)cc4)cc3)cc2)cc1` [Example 363, 4,4′-(4-methylphenylhydroxyboryl)diphenyl], the “TGase activity remaining (% of DMSO control = 100)” value with transglutaminase (TGase) (setting [2]) and in the test with transglutaminase (TGase) (setting [3]) was 97 throughout. Besides, the x-Fold in test [1] (setting [4]) and in test [1] (setting [5]) was 0.92 in each case.
Consider `Cc1ccc(B(OCCN)c2ccc(-c3ccc(B(OCCN)c4ccc(C)cc4)cc3)cc2)cc1` [Example 364, 4,4′-(4-methylphenylaminoethoxyboryl)diphenyl], for which the “TGase activity remaining (% of DMSO control = 100)” value with transglutaminase (TGase) (setting [2]) and with transglutaminase (TGase) (setting [3]) was 44 in each case. In addition, the x-Fold in test [1] (setting [4]) and in test [1] (setting [5]) was 0.82 in each case.
On to `Cc1ccc(B(O)c2ccc(Oc3ccc(B(O)c4ccc(C)cc4)cc3)cc2)cc1` [Example 365, 4,4′-(4-methylphenylhydroxyboryl)diphenylether], for which the “TGase activity remaining (% of DMSO control = 100)” value in the test on transglutaminase (TGase) (setting [2]) and in the test on transglutaminase (TGase) (setting [3]) was 118 throughout. Also, the x-Fold in test [1] (setting [4]) and in test [1] (setting [5]) was 0.91 in each case.
As for `Cc1ccc(B(O)c2ccc(Oc3ccc(B(O)c4ccc(C)c(Cl)c4)cc3)cc2)cc1Cl` [Example 367, 4,4′-bis(3-chloro-4-methyl-phenylhydroxyboryl)diphenylether], the “TGase activity remaining (% of DMSO control = 100)” value with transglutaminase (TGase) (setting [2]) and in the test with transglutaminase (TGase) (setting [3]) was 113 throughout. In addition, the x-Fold in test [1] (setting [4]) and in test [1] (setting [5]) was 0.73 throughout.
Turning to `OB(c1ccccc1)c1ccccc1CCOCc1ccccc1B(O)c1ccccc1` [Example 368, (2-(phenylhydroxyboryl)phenethyl)((2-phenylhydroxyboryl)benzyl)ether], the “TGase activity remaining (% of DMSO control = 100)” value in the test on transglutaminase (TGase) (setting [2]) and in the test with transglutaminase (TGase) (setting [3]) was 52 in each case. Further, the x-Fold in test [1] (setting [4]) and in test [1] (setting [5]) was 1.03 each time.
Take `Cc1ccc(Cl)cc1B(OCC1CCCCN1)c1cc(Cl)ccc1C` (stereo not shown) [Example 371]: in the test with transglutaminase (TGase) (setting [3]), the “TGase activity remaining (% of DMSO control = 100)” value amounted to 98. Besides, in test [1] (setting [4]), the x-Fold worked out at 1.17.
Take `OB(c1ccc(C(F)(F)F)cc1)c1c2ccccc2c(B(O)c2ccc(C(F)(F)F)cc2)c2ccccc12` [Example 374]: the “TGase activity remaining (% of DMSO control = 100)” value with transglutaminase (TGase) (setting [2]) and with transglutaminase (TGase) (setting [3]) was 17 each time. Further, the x-Fold in test [1] (setting [4]) and in test [1] (setting [5]) was 1.14 in each case.
For the compound `NCCOB(c1ccc(C(F)(F)F)cc1)c1c2ccccc2c(B(OCCN)c2ccc(C(F)(F)F)cc2)c2ccccc12` [Example 375], the “TGase activity remaining (% of DMSO control = 100)” value with transglutaminase (TGase) (setting [2]) and with transglutaminase (TGase) (setting [3]) was 44 throughout. Further, the x-Fold in test [1] (setting [4]) and in test [1] (setting [5]) was 1.05 throughout.
`NCCOB(c1cccc(COCc2cccc(B(OCCN)c3cccc4ccccc34)c2)c1)c1cccc2ccccc12` [Example 376, bis(3-(1-naphthylaminoethoxyboryl)benzyl)ether]: the “TGase activity remaining (% of DMSO control = 100)” value with transglutaminase (TGase) (setting [2]) and with transglutaminase (TGase) (setting [3]) was 75 throughout. The x-Fold in test [1] (setting [4]) and in test [1] (setting [5]) was 0.93 throughout.
Turning to `CC(C)(C)c1cc(B(OCCN)c2ccccc2)c2c(c1)C(C)(C)c1cc(C(C)(C)C)cc(B(OCCN)c3ccccc3)c1O2` [Example 378, 4,5-di(phenylaminoethoxyboryl)-2,7-di-tert-butyl-9,9-dimethylxanthrene], the “TGase activity remaining (% of DMSO control = 100)” value with transglutaminase (TGase) (setting [2]) and in the test on transglutaminase (TGase) (setting [3]) was 88 each time. For the same compound, the x-Fold in test [1] (setting [4]) and in test [1] (setting [5]) was 0.79 throughout.
Regarding `OB(c1ccccc1)c1ccc(COCCOc2ccc(B(O)c3ccccc3)cc2)cc1` [Example 379, (4-(phenylhydroxyboryl)phenoxyethyl)(4-(phenylhydroxyboryl)benzyl)ether], the “TGase activity remaining (% of DMSO control = 100)” value with transglutaminase (TGase) (setting [2]) and with transglutaminase (TGase) (setting [3]) was 92 in each case. The x-Fold in test [1] (setting [4]) and in test [1] (setting [5]) was 0.74 each time.
Take `NCCOB(c1ccccc1)c1ccc(COCCOc2ccc(B(OCCN)c3ccccc3)cc2)cc1` [Example 380, (4-(phenylaminoethoxyboryl)phenoxyethyl)(4-(phenylaminoethoxyboryl)benzyl)ether]: the “TGase activity remaining (% of DMSO control = 100)” value with transglutaminase (TGase) (setting [2]) and with transglutaminase (TGase) (setting [3]) was 92 throughout. Moreover, the x-Fold in test [1] (setting [4]) and in test [1] (setting [5]) was 0.67 each time.
As for `OB(c1ccccc1)c1cccc(-c2cccc(B(O)c3ccccc3)n2)n1` [Example 381, 6,6′-(phenylhydroxyboryl)-2,2′-dipyridyl], the “TGase activity remaining (% of DMSO control = 100)” value in the test on transglutaminase (TGase) (setting [2]) and with transglutaminase (TGase) (setting [3]) was 55 each time. Moreover, the x-Fold in test [1] (setting [4]) and in test [1] (setting [5]) was 0.80 each time.
In the case of `NCCOB(c1ccccc1)c1cccc(-c2cccc(B(OCCN)c3ccccc3)n2)n1` [Example 382, 6,6′-(phenylaminoethoxyboryl)-2,2′-dipyridyl], the “TGase activity remaining (% of DMSO control = 100)” value in the test with transglutaminase (TGase) (setting [2]) and with transglutaminase (TGase) (setting [3]) was 76 throughout. The x-Fold in test [1] (setting [4]) and in test [1] (setting [5]) was 0.80 each time.
With `OB(c1ccccc1)c1ccc(B(O)c2ccccc2)o1` [Example 383, bis(2,5-(phenylhydroxyboryl))furan], the “TGase activity remaining (% of DMSO control = 100)” value in the test with transglutaminase (TGase) (setting [2]) and with transglutaminase (TGase) (setting [3]) was 103 each time. Also, the x-Fold in test [1] (setting [4]) and in test [1] (setting [5]) was 0.92 throughout.
Regarding `NCCOB(c1ccccc1)c1ccc(B(OCCN)c2ccccc2)o1` [Example 384, bis(2,5-(phenylaminoethoxyboryl))furan], the “TGase activity remaining (% of DMSO control = 100)” value in the test on transglutaminase (TGase) (setting [2]) and with transglutaminase (TGase) (setting [3]) was 60 each time. Also, the x-Fold in test [1] (setting [4]) and in test [1] (setting [5]) was 1.05 in each case.
For the compound `CN(C)CCOB(c1ccccc1)c1ccc(Oc2ccc(B(OCCN(C)C)c3ccccc3)cc2)cc1` [Example 385, bis(4,4′-(phenyl-N,N-dimethylaminoethoxyboryl)phenyl)ether], the “TGase activity remaining (% of DMSO control = 100)” value in the test with transglutaminase (TGase) (setting [2]) was determined as 116. Moreover, the figures for the x-Fold in test [1] (setting [4]) and in test [1] (setting [5]) were 1.07 and 0.78, respectively.
With `OB(c1ccccc1)c1ccc2sc3ccc(B(O)c4ccccc4)cc3c2c1` [Example 387, 2,8-di(phenylhydroxyboryl)dibenzothiophene], the “TGase activity remaining (% of DMSO control = 100)” value in the test with transglutaminase (TGase) (setting [2]) and in the test on transglutaminase (TGase) (setting [3]) was 96 throughout. Further, the x-Fold in test [1] (setting [4]) and in test [1] (setting [5]) was 0.73 throughout.
Consider `c1cc(B(OCC2CCCN2)c2ccc3sc4ccc(B(OCC5CCCN5)c5ccsc5)cc4c3c2)cs1` (stereo not shown) [Example 389, 2,8-di(3-thiophenyl-2-pyrrolidinomethoxyboryl)dibenzothiophene], for which the “TGase activity remaining (% of DMSO control = 100)” value in the test with transglutaminase (TGase) (setting [2]) and in the test on transglutaminase (TGase) (setting [3]) was 81 throughout. The x-Fold in test [1] (setting [4]) and in test [1] (setting [5]) was 0.83 each time.
For the compound `NC(=O)CC(N)C(=O)OB(c1ccccc1)c1ccc(Oc2ccc(B(OC(=O)C(N)CC(N)=O)c3ccccc3)cc2)cc1` (stereo not shown) [Example 390, bis(4,4′-(phenyl-asparagineboryl)phenyl)ether], the “TGase activity remaining (% of DMSO control = 100)” value in the test with transglutaminase (TGase) (setting [2]) was found to be 56. Further, the x-Fold in test [1] (setting [5]) is given as 0.59.
Regarding `CN(C)CCOB(c1ccccc1)c1ccc(Oc2ccc(B(OCCN(C)C)c3ccc(CO)cc3)cc2)cc1` [Example 392, (4-(phenyl-N,N-dimethylaminoethoxyboryl)phenyl)(4′-(hydroxymethylphenyl-N,N-dimethylaminoethoxyboryl)phenyl)ether], the “TGase activity remaining (% of DMSO control = 100)” value in the test with transglutaminase (TGase) (setting [2]) and in the test with transglutaminase (TGase) (setting [3]) was 83 each time. For the same compound, the x-Fold in test [1] (setting [4]) and in test [1] (setting [5]) was 0.91 each time.
Take `NC(CCC(=O)O)C(=O)OB(c1ccccc1)c1ccc(Oc2ccc(B(OC(=O)C(N)CCC(=O)O)c3ccc(CO)cc3)cc2)cc1` (stereo not shown) [Example 393, (4-(phenyl-glutamic acid boryl)phenyl)(4′-(hydroxymethylphenyl-glutamic acid boryl)phenyl)ether]: the “TGase activity remaining (% of DMSO control = 100)” value in the test on transglutaminase (TGase) (setting [2]) amounted to 117. Also, the x-Fold in test [1] (setting [5]) is listed as 0.56.
`CN(C)CCOB(c1ccccc1)c1ccc(Oc2ccc(B(OCCN(C)C)c3ccccc3)cc2)cc1` [Example 395, bis(4,4′-(phenyl-N,N-dimethylaminoethoxyboryl)phenyl)ether]: the “TGase activity remaining (% of DMSO control = 100)” value with transglutaminase (TGase) (setting [2]) was 116. Also, in test [1] (setting [5]), the x-Fold is on record as 0.86.
Regarding `NC(CS)C(=O)OB(c1ccccc1)c1ccc(Oc2ccc(B(OC(=O)C(N)CS)c3ccc(CO)cc3)cc2)cc1` (stereo not shown) [Example 397, (4-(phenyl-cysteineboryl)phenyl)(4′-(hydroxymethylphenyl-cysteineboryl)phenyl)ether], the “TGase activity remaining (% of DMSO control = 100)” value in the test on transglutaminase (TGase) (setting [2]) and in the test on transglutaminase (TGase) (setting [6]) was 70 each time. Also, the x-Fold in test [1] (setting [7]) and in test [1] (setting [5]) was 0.59 in each case.
For the compound `NCCNCCOB(c1ccccc1)c1ccc(COCc2ccc(B(OCCNCCN)c3ccccc3)cc2)cc1` [Example 399, bis(4,4′-(phenyl-N-aminoethyl-aminoethoxyboryl)benzyl)ether], the “TGase activity remaining (% of DMSO control = 100)” value in the test with transglutaminase (TGase) (setting [2]) and in the test with transglutaminase (TGase) (setting [6]) was 53 each time. For the same compound, the x-Fold in test [1] (setting [7]) and in test [1] (setting [5]) was 0.96 each time.
